Values joined by “and” are separate entries in the source; they are usually repeats but may differ in a detail not shown here. Equal values may be shown once.
Tests used:
granulation tissue = experiment: Subcutaneous Ivalon sponge implantation, histological analysis of granulation tissue formation; type: in vivo, Sprague-Dawley rats; details: no collagen
bone fracture = experiment: Repair of bone fractures (fractured ulna, loss of minerals on decalcification, histology); type: in vivo, guinea pigs; details: for after decalcification / before decalcification: ten days after surgery
Protocol: The ulnae of 18 guinea pigs were exposed surgically and then fractured at the midshaft, using a very fine dental burr as a saw. The intact radius served as an immobilization splint. The animals were divided into six groups, three in each, according to the treatment at the fracture site, which was as follows: • Group 1. Untreated controls • Group 2. Sucrose octasulfate 1.0 mg/ml instilled at the fracture site with a syringe • Group 3. Sucrose octasulfate 4.0 mg/ml • Group 4. Collagen (a native 0.25% neutral salt solution) • Group 5. Collagen plus sucrose octasulfate 1.0 mg/ml • Group 6. Collagen plus sucrose octasulfate 4.0 mg/ml
The animals were sacrified ten days after surgery, and the fractured bones were dissected and processed for both histologic and biochemical analyses.

fibroblasts = experiment: Cell migration assay (Boyden chamber); type: cell-based; design: Chemokinesis: scale not given here
Protocol: Stimulation of directed movement of fibroblasts was assayed as described by Banda M.J., Knighton D.R., Hunt T.K., Werb A., Isolation of a nonmitogenic angiogenesis factor from wound fluid, Proc. Natl. Acad. Sci. 79:7773-7777, 1982. Briefly, solutions of sucrose octasulfate in PBS in concentrations resulting in final concentrations ranging from 10 -² to 10 -⁷ g/ml diluted to a final volume of 300 µℓ in DMEM supplemented with 10 percent rabbit platelet-poor plasma serum were placed in the bottom of Boyden blind-well chambers. Polylysine-coated, 5 µ -pore diameter, polycarbonate filters (Nucleopore) were placed over the test solution and 1.75-3.0 x 10⁶ fibroblasts suspended in DMEM added to the top compartment. The chambers were incubated for two and a half hours at 37 °C,
At the end of incubation of the top filter was fixed, stained and evaluated by counting the number of cells that had migrated to the bottom side of the filter. For each experiment five random fields per filter and at least 15 filters per each concentration of sucrose octasulfate were conducted. […]

collagen = experiment: Sucrose octasulfate induced collagen fibrillogenesis (stopped-flow turbidity); type: biochemical
Source text: Sucrose octasulfate-induced collagen fibril formation was studied in a spectrophotometer equipped with a stopped-flow apparatus. […]

pressure ulcer = experiment: Clinical double-blind dose-response trial in pressure ulcers; type: in vivo, patients; details: for Results: twice daily
Protocol: Five patients were subjected to a dose-response trial using sucrose octasulfate in water. The test was a double-blind trial with four treatment arms, 0.1, 1.0, or 10mg/ml or placebo (sterile water for irrigation). Patients were entered following debridement of the study pressure ulcer and a gauze sponge was saturated with sucrose octasulfate solution (i.e. sucrose octasulfate in sterile water vehicle) or placebo and packed into the ulcer crater, then covered with biobrane dressing to keep the area moist. Treatments were applied twice daily for a 30 day interval for four patients and for three weeks for the fifth patient.
The patient population was bedridden comatose adults with chronic ulcers having failed with some form of previous treatment(s). The patients were kept on the same ward as they had been during months prior to the trials so nursing care was uniform prior to and during the study. Thus, any response is favourable. The first four cases are nearly uniform in that three of four treatment ulcers were trochanteric.

rabbit corneas = experiment: Rabbit cornea assay for angiogenesis; type: in vivo
Protocol: This may offer an explanation for the dense vascular bed that characterized the granulation tissue in the in-vivo experiments. Sucrose octasulate at concentrations of 0.1 to 100 µg/ml was encapsulated in Hydron and implanted in rabbit corneas. The method used was that described in Surgery 96:48-54, 1984. The […] solution (sucrose octasulfate or PBS) was mixed with an equal volume of Hydron and allowed to polymerize under reduced pressure. […] Eyes were evaluated at days 1 through 14 post-implantation for gross inflammation and, as described by Hunt, et al, in Surgery 96:48-54, 1984, for angiogenesis. Corneal neovascularization was graded on a scale of 0-4+ (integers only being assigned). Zero denotes a normal eye with no ingrowth on limbal vessels into the corneal stroma; 1+, up to 1 mm of capillary ingrowth in a localized arc adjacent to the injection site; 2+, […] ingrowth; 3+, 2-3 mm ingrowth; and 4+, 3 mm or greater ingrowth in a wide arc along the limbal edge toward the injection site. […] To ascertain that the observed angiogenesis was not secondary to an inflammatory process some eyes with a positive response were removed and stained with H&E and a nonspecific esterase stain as early as two days after implantation.

[1] = sucrose octasulfate 1 mg/ml at fracture site
[2] = sucrose octasulfate 4 mg/ml at fracture site

Compound: O=S(=O)([O-])OC[C@H]1O[C@@](COS(=O)(=O)[O-])(O[C@H]2O[C@H](COS(=O)(=O)[O-])[C@@H](OS(=O)(=O)[O-])[C@H](OS(=O)(=O)[O-])[C@H]2OS(=O)(=O)[O-])[C@@H](OS(=O)(=O)[O-])[C@@H]1OS(=O)(=O)[O-].[K+].[K+].[K+].[K+].[K+].[K+].[K+].[K+] [Sucrose Octasulfate, potassium sucrose octasulfate]
- hemorrhage in sponge (granulation tissue; 10.0 mg/ml sucrose octasulfate in Hydron): local hemorrhage
- histologic appearance of sponge (granulation tissue) (granulation tissue; 50 µl of Hydron containing either 1.0 mg/ml or 0.1 mg/ml sucrose octasulfate): formation of granulation tissue densely populated with fibroblasts and highly vascularized with new capillary growth
- after decalcification (bone fracture; [1]): 2.20
- before decalcification (bone fracture; [1]): 7.00
- decrease (bone fracture; sucrose octasulfate 1 mg/ml, loss of minerals following decalcification): 4.80 mg
- decrease (bone fracture; sucrose octasulfate 1 mg/ml, percent loss of minerals following decalcification): 68.6%
- after decalcification (bone fracture; [2]): 2.60
- before decalcification (bone fracture; [2]): 5.90
- decrease (bone fracture; sucrose octasulfate 4 mg/ml, loss of minerals following decalcification): 3.30 mg
- decrease (bone fracture; sucrose octasulfate 4 mg/ml, percent loss of minerals following decalcification): 55.9%
- Chemokinesis (fibroblasts; score, Boyden chamber, scale not defined, potassium salts): 4
- Migrated fibroblasts, fold increase over negative control (fibroblasts; sucrose octasulfate 10⁻² g/ml, 2.5 hours at 37 °C): 0.4 fold increase over negative control
- Migrated fibroblasts, fold increase over negative control (fibroblasts; sucrose octasulfate 10⁻³ g/ml): 0.4 fold increase over negative control
- Migrated fibroblasts, fold increase over negative control (fibroblasts; sucrose octasulfate 10⁻⁴ g/ml): 0.6 fold increase over negative control
- Migrated fibroblasts, fold increase over negative control (fibroblasts; sucrose octasulfate 10⁻⁵ g/ml): 2.2 fold increase over negative control
- Migrated fibroblasts, fold increase over negative control (fibroblasts; sucrose octasulfate 10⁻⁶ g/ml): 2.1 fold increase over negative control
- Migrated fibroblasts, fold increase over negative control (fibroblasts; sucrose octasulfate 10⁻⁷ g/ml): 1.1 fold increase over negative control
- moles of sucrose octasulfate per mole of collagen initiating the reaction (collagen): five
- critical concentration (lower concentration required for initiation of fibrillogenesis of collagen) (collagen; collagen 0.5 mg/ml, pH 7.4): 0.01 mg/ml
- fibrillogenesis at pH 3.0 compared with pH 7.4 (collagen; pH 3.0): Identical results
- time to dissociation of the transient complex (collagen; sucrose octasulfate 0.01 mg/ml, collagen 0.5 mg/ml): ≤ 100 ms
- time of formation of collagen fibrils (collagen; sucrose octasulfate 0.2 mg/ml, collagen 0.5 mg/ml, pH 7.4): 60 to 70 ms and 60 to 75 ms
- Depth (prestudy) (pressure ulcer; Patient 001, 10 mg/ml): 0.5 cm
- Results (pressure ulcer; Patient 001, 10 mg/ml in water, 30 days): no reduction in ulcer depth
- Depth (after treatment) (pressure ulcer; Patient 001, 10 mg/ml, 30 days): 0.5 cm
- Depth (prestudy) (pressure ulcer; Patient 002, 1 mg/ml): 3.0 cm
- Results (pressure ulcer; Patient 002, 1 mg/ml in water, 30 days): reduction in ulcer depth
- Depth (after treatment) (pressure ulcer; Patient 002, 1 mg/ml, 30 days): 1.5 cm
- Depth (prestudy) (pressure ulcer; Patient 003, 0.1 mg/ml): 0.5 cm
- Results (pressure ulcer; Patient 003, 0.1 mg/ml in water, 30 days): some reduction in ulcer depth
- Depth (after treatment) (pressure ulcer; Patient 003, 0.1 mg/ml, 30 days): 0.3 cm
- Depth (prestudy) (pressure ulcer; Patient 005, 10 mg/ml): 2.8 cm
- Results (pressure ulcer; Patient 005, 10 mg/ml in water, three weeks): reduction in ulcer depth
- Depth (after treatment) (pressure ulcer; Patient 005, 10 mg/ml, after 3 weeks of treatment): 1.6 cm
- extent of angiogenesis (rabbit corneas; 0.1 µg/ml): negative
- No. Positive Responses (rabbit corneas; 0.1 µg/ml in Hydron, 5 corneas implanted): 0
- No. Positive Responses (rabbit corneas; 1 µg/ml in Hydron, 6 corneas implanted): 1
- No. Positive Responses (rabbit corneas; 10 µg/ml in Hydron, 5 corneas implanted): 4
- No. Positive Responses (rabbit corneas; 100 µg/ml in Hydron, 9 corneas implanted): 8
- Angiogenesis (rabbit corneas; grade on scale 0-4+ in rabbit cornea, potassium salts): 4
- angiogenic response (rabbit corneas; implantation of 10 and 100 µg/ml): most potent angiogenic response
- extent of angiogenesis (rabbit corneas; lower concentration, 1.0 g/ml as printed): decreased
